Source: patent US7541353B2, “Compounds for the treatment of hepatitis C” (Bristol-Myers Squibb Company, priority 2007, dated 2009)
pEC50, pIC50: −log10 of the molar value.

Tests used:
HCV NS5B = biological target: T1, HCV NS5B (Hepatitis C virus genotype 1b, UniProt Q9WMX2); test: Modified HCV NS5B RdRp enzyme assay (preincubation protocol); type: biochemical
T1 construct: The cDNA encoding the NS5B protein of HCV, genotype 1b; made in house; host or cells: E. coli BL21(DE3)
Description: HCV NS5B RdRp cloning, expression, and purification. The cDNA encoding the NS5B protein of HCV, genotype 1b, was cloned into the pET21a expression vector. The protein was expressed with an 18 amino acid C-terminal truncation to enhance the solubility. The E. coli competent cell line BL21(DE3) was used for expression of the protein. Cultures were grown at 37° C. for ˜4 hours until the cultures reached an optical density of 2.0 at 600 nm. The cultures were cooled to 20° C. and induced with 1 mM IPTG. Fresh ampicillin was added to a final concentration of 50 μg/ml and the cells were grown overnight at 20° C.
Cell pellets (3L) were lysed for purification to yield 15-24 mgs of purified NS5B. The lysis buffer consisted of 20 mM Tris-HCl, pH 7.4, 500 mM NaCl, 0.5% triton X-100, 1 mM DTT, 1 mM EDTA, 20% glycerol, 0.5 mg/ml lysozyme, 10 mM MgCl2, 15 ug/ml deoxyribonuclease I, and Complete™ protease inhibitor tablets (Roche). After addition of the lysis buffer, frozen cell pellets were resuspended using a tissue homogenizer. To reduce the viscosity of the sample, aliquots of the lysate were sonicated on ice using a microtip attached to a Branson sonicator. The sonicated lysate was centrifuged at 100,000×g for 1 hr at 4° C. and filtered through a 0.2 μm filter unit (Corning).
The protein was purified using two sequential chromatography steps: Heparin sepharose CL-6B and polyU sepharose 4B (Pharmacia). The chromatography buffers were identical to the lysis buffer but contained no lysozyme, deoxyribonuclease I, MgCl2 or protease inhibitor and the NaCl concentration of the buffer was adjusted according to the requirements for charging the protein onto the column. Each column was eluted with a NaCl gradient which varied in length from 5-50 column volumes depending on the column type. After the final chromatography step, the resulting purity of the enzyme is >90% based on SDS-PAGE analysis. The enzyme was aliquoted and stored at −80° C.
Standard HCV NS5B RdRp enzyme assay. HCV RdRp genotype 1b assays were run in a final volume of 60 μl in 96 well plates (Corning 3600). The assay buffer is composed of 20 mM Hepes, pH 7.5, 2.5 mM KCl, 2.5 mM MgCl2, 1 mM DTT, 1.6 U RNAse inhibitor (Promega N2515), 0.01 mg/ml BSA (Sigma B6917), and 2% glycerol. All compounds were serially diluted (3-fold) in DMSO and diluted further in water such that the final concentration of DMSO in the assay was 2%. HCV RdRp genotype 1b enzyme was used at a final concentration of 28 nM. A polyA template was used at 6 nM, and a biotinylated oligo-dT12 primer was used at 180 nM final concentration. Template was obtained commercially (Amersham 27-4110). Biotinylated primer was prepared by Sigma Genosys. 3H-UTP was used at 0.6 μCi (0.29 μM total UTP). Reactions were initiated by the addition of enzyme, incubated at 30° C. for 60 min, and stopped by adding 25 μl of 50 mM EDTA containing SPA beads (4 μg/μl, Amersham RPNQ 0007). Plates were read on a Packard Top Count NXT after >1 hr incubation at room temperature.
Modified HCV NS5B RdRp enzyme assay. A modified enzyme assay was performed essentially as described for the standard enzyme assay except for the following: The biotinylated oligo dT12 primer was precaptured on streptavidin-coated SPA beads by mixing primer and beads in assay buffer and incubating at room temperature for one hour. Unbound primer was removed after centrifugation. The primer-bound beads were resuspended in 20 mM Hepes buffer, pH 7.5 and used in the assay at final concentrations of 20 nM primer and 0.67 μg/μl beads. Order of addition in the assay: enzyme (1.75 nM) was added to diluted compound followed by the addition of a mixture of template (0.36 nM), 3H-UTP (0.6 μCi, 0.29 μM), and primer-bound beads, to initiate the reaction; concentrations given are final. Reactions were allowed to proceed for 4 hours at 30° C.
IC50 values for compounds were determined using seven different [I]. […]

HCV replicon cells = test: HCV replicon FRET assay; type: cell-based; details: Hepatitis C virus
Description: FRET Assay Preparation. The HCV FRET screening assay was performed in 96-well cell culture plates. The FRET peptide (Anaspec, Inc.) (Taliani et al., Anal. Biochem. 1996, 240, 60-67) contains a fluorescence donor, EDANS, near one end of the peptide and an acceptor, DABCYL, near the other end. The fluorescence of the peptide is quenched by […] resonance energy transfer (RET) between the donor and the acceptor, but as the NS3 protease cleaves the peptide the products are released from RET quenching and the fluorescence of the donor becomes apparent. The assay reagent was made as follows: 5× cell Luciferase cell culture lysis reagent from Promega (#E153A) diluted to 1× with dH2O, NaCl added to 150 mM final, the FRET peptide diluted to 20 μM final from a 2 mM stock.
To prepare plates, HCV replicon cells, with or without a Renilla luciferase reporter gene, were trypsinized and plated in a 96-well plate with titrated test compounds added in columns 3 through 12; columns 1 and 2 contained a control compound (HCV control inhibitor), and the bottom row contained cells with DMSO only. The plates were then placed in a CO2 incubator at 37° C.
Assays. Subsequent to addition of the test compounds described above (FRET Assay Preparation), at various times the plate was removed and Alamar blue solution (Trek Diagnostics, #00-100) was added to measure cellular toxicity. After reading in a Cytoflour 4000 instrument (PE Biosystems), plates were rinsed with PBS and then used for FRET assay by the addition of 30 ul of the FRET peptide assay reagent described above (FRET Assay Preparation) per well. The plate was then placed into the Cytoflour 4000 instrument which had been set to 340 excite/490 emission, automatic mode for up to 20 cycles and the plate read in a kinetic mode. Typically, the signal to noise using an endpoint analysis after the reads was at least three-fold. Alternatively, after Alamar blue reading, plates were rinsed with PBS, then used for luciferase assay using the Promega Dual-Glo Luciferase Assay System or the Promega EnduRen Live Cell Substrate assay.
Compound analysis was performed by quantification of the relative HCV replicon inhibition and the relative cytotoxicity values. To calculate cytoxicity values, the average Alamar Blue fluorescence signals from the control wells were set as 100% non-toxic. The individual signals in each of the compound test wells were then divided by the average control signal and multiplied by 100% to determine […]. To calculate the HCV replicon inhibition values, an average background value was obtained from the two wells containing the highest amount of HCV control inhibitor at the end of the assay period. These numbers were similar to those obtained from naïve Huh-7 cells. The background numbers were then subtracted from the average signal obtained from the control wells and this number was used as 100% activity. The individual signals in each of the compound test wells were then divided by the averaged control values after background subtraction and multiplied by 100% to determine percent activity. EC50 values were calculated as the concentration which caused a 50% reduction in FRET or luciferase activity. The two numbers generated for the compound plate, percent cytoxicity and percent activity, were used to determine compounds of interest for further analysis.

T1 sequence (Q9WMX2 2420-2992): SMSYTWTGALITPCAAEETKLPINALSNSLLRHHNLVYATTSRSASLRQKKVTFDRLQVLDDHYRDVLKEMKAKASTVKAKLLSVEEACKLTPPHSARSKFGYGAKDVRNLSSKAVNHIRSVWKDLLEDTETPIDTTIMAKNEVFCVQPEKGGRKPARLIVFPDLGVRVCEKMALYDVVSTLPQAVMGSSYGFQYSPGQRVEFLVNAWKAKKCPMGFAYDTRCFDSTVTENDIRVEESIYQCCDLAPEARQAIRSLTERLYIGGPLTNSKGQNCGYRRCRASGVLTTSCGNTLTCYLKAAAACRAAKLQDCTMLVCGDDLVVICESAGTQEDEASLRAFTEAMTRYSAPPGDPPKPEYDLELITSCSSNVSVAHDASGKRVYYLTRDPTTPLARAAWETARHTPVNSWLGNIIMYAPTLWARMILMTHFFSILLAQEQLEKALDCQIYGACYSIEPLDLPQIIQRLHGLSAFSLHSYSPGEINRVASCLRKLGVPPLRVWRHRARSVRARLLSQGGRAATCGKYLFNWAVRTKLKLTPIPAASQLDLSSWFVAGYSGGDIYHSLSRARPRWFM

| Structure (SMILES) | pIC50 (HCV NS5B) | pEC50 (HCV replicon cells) |
| --- | --- | --- |
| COc1ccc2c(c1)C1CC1(C(=O)N1C3CCC1COC3)Cn1c-2c(C2CCCCC2)c2ccc(C(=O)NS(=O)(=O)N(C)C)cc21 (stereo not shown) | 6.30 to 8.34 | 6.30 to 8.34 |
| COc1ccc2c(c1)C1CC1(C(=O)N1C3CCC1CC(O)C3)Cn1c-2c(C2CCCCC2)c2ccc(C(=O)NS(=O)(=O)N(C)C)cc21 (stereo not shown) | 6.30 to 8.34 | 6.30 to 8.34 |
| COc1ccc2c(c1)C1CC1(C(=O)N1C3CCC1CC(N1CCCCC1)C3)Cn1c-2c(C2CCCCC2)c2ccc(C(=O)NS(=O)(=O)N(C)C)cc21 (stereo not shown) | 6.30 to 8.34 | 6.30 to 8.34 |
| COc1ccc2c(c1)C1CC1(C(=O)N1C3CCC1CC(C)(O)C3)Cn1c-2c(C2CCCCC2)c2ccc(C(=O)NS(=O)(=O)N(C)C)cc21 (stereo not shown) | 6.30 to 8.34 | 6.30 to 8.34 |
| COc1ccc2c(c1)C1CC1(C(=O)N1C3CCC1CC(N(C)C)C3)Cn1c-2c(C2CCCCC2)c2ccc(C(=O)NS(=O)(=O)N(C)C)cc21 (stereo not shown) | 6.30 to 8.34 | 6.30 to 8.34 |
| COc1ccc2c(c1)C1CC1(C(=O)N1C3CCC1CC(N(C)Cc1ccccc1)C3)Cn1c-2c(C2CCCCC2)c2ccc(C(=O)NS(=O)(=O)N(C)C)cc21 (stereo not shown) | 6.30 to 8.34 | 6.30 to 8.34 |
| COc1ccc2c(c1)C1CC1(C(=O)N1C3CCC1CC(N(CCN(C)C)Cc1ccccc1)C3)Cn1c-2c(C2CCCCC2)c2ccc(C(=O)NS(=O)(=O)N(C)C)cc21 (stereo not shown) | 6.30 to 8.34 | 6.30 to 8.34 |
| COc1ccc2c(c1)C1CC1(C(=O)N1C3CCC1CC(NCc1ccccc1)C3)Cn1c-2c(C2CCCCC2)c2ccc(C(=O)NS(=O)(=O)N(C)C)cc21 (stereo not shown) | 6.30 to 8.34 | 6.30 to 8.34 |
| CCNC1CC2CCC(C1)N2C(=O)C12CC1c1cc(OC)ccc1-c1c(C3CCCCC3)c3ccc(C(=O)NS(=O)(=O)N(C)C)cc3n1C2 (stereo not shown) | 6.30 to 8.34 | 6.30 to 8.34 |
| COc1ccc2c(c1)C1CC1(C(=O)N1C3CCC1CC(NCCN(C)C)C3)Cn1c-2c(C2CCCCC2)c2ccc(C(=O)NS(=O)(=O)N(C)C)cc21 (stereo not shown) | 6.30 to 8.34 | 6.30 to 8.34 |
| COc1ccc2c(c1)C1CC1(C(=O)N1C3CCC1CC3)Cn1c-2c(C2CCCCC2)c2ccc(C(=O)NS(=O)(=O)N3CCN(C)CC3)cc21 (stereo not shown) | 6.30 to 8.34 | 6.30 to 8.34 |
| COc1ccc2c(c1)C1CC1(C(=O)N1C3CCC1CC(O)(C(C)(C)C)C3)Cn1c-2c(C2CCCCC2)c2ccc(C(=O)NS(=O)(=O)N(C)C)cc21 (stereo not shown) | 6.30 to 8.34 | 6.30 to 8.34 |
| COc1ccc2c(c1)C1CC1(C(=O)N1C3CCC1CC(N(CCN(C)C)Cc1ccccc1)C3)Cn1c-2c(C2CCCCC2)c2ccc(C(=O)NS(C)(=O)=O)cc21 (stereo not shown) | 6.30 to 8.34 | 6.30 to 8.34 |
| COc1ccc2c(c1)C1CC1(C(=O)N1C3CCC1CC(C)(O)C3)Cn1c-2c(C2CCCCC2)c2ccc(C(=O)NS(=O)(=O)C(C)C)cc21 (stereo not shown) | 6.30 to 8.34 | 6.30 to 8.34 |
| COc1ccc2c(c1)C1CC1(C(=O)N1C3CCC1CC(C)(O)C3)Cn1c-2c(C2CCCCC2)c2ccc(C(=O)NS(=O)(=O)N3CCC3)cc21 (stereo not shown) | 6.30 to 8.34 | 6.30 to 8.34 |
| COc1ccc2c(c1)C1CC1(C(=O)N1C3CCC1CC(N(CCN(C)C)Cc1ccccc1)C3)Cn1c-2c(C2CCCCC2)c2ccc(C(=O)NS(=O)(=O)N3CCC3)cc21 (stereo not shown) | 6.30 to 8.34 | 6.30 to 8.34 |
| COc1ccc2c(c1)C1CC1(C(=O)N1C3CCC1CC(NCc1ccccc1)C3)Cn1c-2c(C2CCCCC2)c2ccc(C(=O)NS(=O)(=O)N3CCC3)cc21 (stereo not shown) | 6.30 to 8.34 | 6.30 to 8.34 |
| COc1ccc2c(c1)C1CC1(C(=O)N1C3CCC1CC(N(C)Cc1ccccc1)C3)Cn1c-2c(C2CCCCC2)c2ccc(C(=O)NS(=O)(=O)N3CCC3)cc21 (stereo not shown) | 6.30 to 8.34 | 6.30 to 8.34 |
| COc1ccc2c(c1)C1CC1(C(=O)N1C3CCC1CC(=O)C3)Cn1c-2c(C2CCCCC2)c2ccc(C(=O)NS(=O)(=O)C3CC3)cc21 (stereo not shown) | 6.30 to 8.34 |  |
| COc1ccc2c(c1)C1CC1(C(=O)N1C3CCC[C@@H]1COC3)Cn1c-2c(C2CCCCC2)c2ccc(C(=O)NS(=O)(=O)C(C)C)cc21 (stereo partly shown) | 6.30 to 8.34 | 6.30 to 8.34 |
| COc1ccc2c(c1)C1CC1(C(=O)N1C3CCC[C@@H]1COC3)Cn1c-2c(C2CCCCC2)c2ccc(C(=O)NS(=O)(=O)C3CCCC3)cc21 (stereo partly shown) | 6.30 to 8.34 | 6.30 to 8.34 |
| COc1ccc2c(c1)C1CC1(C(=O)N1C3COCC1COC3)Cn1c-2c(C2CCCCC2)c2ccc(C(=O)NS(=O)(=O)C3CCCCC3)cc21 (stereo not shown) | 6.30 to 8.34 | 6.30 to 8.34 |
| COc1ccc2c(c1)C1CC1(C(=O)N1C3CCC[C@@H]1COC3)Cn1c-2c(C2CCCCC2)c2ccc(C(=O)NS(=O)(=O)CC(F)(F)F)cc21 (stereo partly shown) | 6.30 to 8.34 | 6.30 to 8.34 |
| COc1ccc2c(c1)C1CC1(C(=O)N1C3COCC1COC3)Cn1c-2c(C2CCCCC2)c2ccc(C(=O)NS(=O)(=O)CCC(F)(F)F)cc21 (stereo not shown) | 6.30 to 8.34 | 6.30 to 8.34 |
| COc1ccc2c(c1)C1CC1(C(=O)N1C3COCC1COC3)Cn1c-2c(C2CCCCC2)c2ccc(C(=O)NS(=O)(=O)C3CCCC3)cc21 (stereo not shown) | 6.30 to 8.34 | 6.30 to 8.34 |
| COc1ccc2c(c1)C1CC1(C(=O)N1C3COCC1COC3)Cn1c-2c(C2CCCCC2)c2ccc(C(=O)NS(=O)(=O)CC(F)(F)F)cc21 (stereo not shown) | 6.30 to 8.34 | 6.30 to 8.34 |
| COc1ccc2c(c1)C1CC1(C(=O)N1C3CCCC1COC3)Cn1c-2c(C2CCCCC2)c2ccc(C(=O)NS(=O)(=O)CCC(F)(F)F)cc21 (stereo not shown) | 6.30 to 8.34 | 6.30 to 8.34 |
| COc1ccc2c(c1)C1CC1(C(=O)N1C3CCCC1COC3)Cn1c-2c(C2CCCCC2)c2ccc(C(=O)NS(=O)(=O)C3CCC3)cc21 (stereo not shown) | 6.30 to 8.34 | 6.30 to 8.34 |
